We go through 1 compound from patent US20250303062A1, “Methods for controlling drug administration” (NUTROMICS […] LTD, priority 2022, published 2025).

The target in series [1] is DNA-aptamer for vancomycin. Nature of the series: Titration curve of vancomycin EAB sensor by square-wave voltammetry, dissociation constant of the aptamer. It is filed as binding. The procedure:
Each combination of electrode/matrix was electrochemically interrogated via square-wave voltammetry to obtain two set of data: • A frequency map, where the signal-on and signal-off frequencies were determined for a particular amplitude. • A titration curve, where the sensor is interrogated at several concentrations of vancomycin by using the optimal signal-on frequency (responsible for the sensing event).
The titration curve also allowed determination of the dissociation constant of the aptamer in the employed matrix.
• Estart=between −0.5 and −0.4 V • Efinal=between −0.2 and −0.1 V • Eref=Ag|AgCl
• fix A=optimal amplitude (25 mV for vancomycin-in-vitro) • scan f=optimal signal-on value (between 80 and 100 Hz) and signal-off value (lower than 15 Hz)
Reference is made to FIG. 13 showing response of a vancomycin sensitive microelectrode (d=340 μm) in (i) human serum and (artificial ISF including BSA, and globulin as described above). The following equation describes an isotherm that represents the response of the sensing layer to the presence of different concentrations of vancomycin.
Reference is made to FIG. 17, showing data comparing the use of two different mathematical approaches for obtaining KD, which generated consisting fitting.

Series [2] can be described thus: Human study: vancomycin in ISF by wearable EAB sensor vs serum. The note with it: healthy participants, single intravenous infusion 1 gram over 1 hour 40 minutes, ISF measured every 5 minutes. It is filed as in vivo. The procedure:
These human studies followed vancomycin levels using an EAB sensor (which may also be referred to as the “device”). The device was a self-contained wearable EAB sensor, constructed, having an on-board power supply, electrodes, and electronics, including a microprocessor and BlueTooth™ communications module.
A vancomycin-sensitive EAB sensor was placed onto the participant's upper arm (see FIG. 20), opposite the arm where vancomycin was being infused. The time of device application was recorded. The device was applied 30 minutes (+15 minutes) prior to administering the vancomycin infusion and the device was removed up to 10 hours post-cessation of the infusion.
30 minutes (+15 minutes) post-application of the device, the participant received a single dose of vancomycin as an intravenous infusion (1 gram over 1 hour 40 minutes). The time of administration and completion of infusion was recorded. […]
Square Wave Voltammetry (SWV) was used to interrogate the DNA-based sensor electrodes. […] Use the determined peak currents magnitudes obtained at two different SWV interrogation frequencies (in this case 50 Hz and 300 Hz), when no vancomycin is present and when it is present to calculate an analyte concentration responsive signal(S). • 4. […]

Structures are written as SMILES.

For `CN[C@H](CC(C)C)C(=O)N[C@H]1C(=O)N[C@@H](CC(N)=O)C(=O)N[C@H]2C(=O)N[C@H]3C(=O)N[C@H](C(=O)N[C@H](C(=O)O)c4cc(O)cc(O)c4-c4cc3ccc4O)[C@H](O)c3ccc(c(Cl)c3)Oc3cc2cc(c3O[C@@H]2O[C@H](CO)[C@@H](O)[C@H](O)[C@H]2O[C@H]2C[C@](C)(N)[C@H](O)[C@H](C)O2)Oc2ccc(cc2Cl)[C@H]1O` [vancomycin], the KD entry in series [1] (human serum, smaller sensing area (microelectrode d=170 μm), two mathematical approaches) is given as “preserved”. Also, the “KD (the dissociation constant of the DNA aptamer)” value in series [1] (microelectrode d=340 μm, synthetic interstitial fluid containing proteins compared with human serum) is “similar”. Besides, the “vancomycin in the ISF compartment (ISF vs blood)” value in series [2] is on record as “high variation”.
